Experimental data reported in patent publication US8278359B2, “Compositions containing amines and use thereof to treat acne or reduce the appearance of oil or pores on the skin” (Johnson & Johnson Consumer Companies, Inc., priority 2005, dated 2012).
Like-named read-outs stand apart in the source and are kept apart here.

Assays:
[1] = test system: TNF (tissue necrosis factor-alpha); assay: PHA-stimulated peripheral blood lymphocyte cytokine release: TNF; format: cell-based; settings: Homo sapiens, read-out: TNF % inh.
Excerpt: (§1) The ability of various amines to affect the inflammatory responses was illustrated by its ability to reduce the production of cytokines by human lymphocytes stimulated with the T-cell receptor (TCR) activating agent phytohaemagglutinin (PHA) in the following assay.
(§2) Human leukocytes were collected from a healthy adult […] via leukopheresis, and adjusted to a density Of 1×10^6 cells/mL in serum free lymphocyte growth medium (ExVivo-15, Biowhittaker, Walkersville, Md.). PBLs were stimulated with 10 μg/mL PHA in the presence or absence of test samples following published methods (Hamamoto Y., et al. Exp Dermatol 2:231-235, 1993). The following compounds were evaluated N,N,N′,N′-Tetrakis(2-hydroxypropyl)ethylenediamine (THPED, available from BASF under the tradename “Quadrol” or “Neutrol”), N,N,N,N-Tetramethylethylenediamine (TEMED, available from Pfaltz & Bauer Chemicals (Waterbury, Conn.)), and Diethylenetriamine (available from Sigma-Aldrich) Following a 48 hour incubation at 37° C. with 5% CO2, the supernatant was removed and evaluated for cytokine content using commercially available multiplex cytokine detection kit.

[2] = test system: IL-2 (Interleukin-2); assay: PHA-stimulated peripheral blood lymphocyte cytokine release: IL-2; format: cell-based; settings: Homo sapiens, read-out: IL-2 % inh.
Excerpt: as §1, §2

[3] = test system: IFN (interferon-gamma); assay: PHA-stimulated peripheral blood lymphocyte cytokine release: IFN; format: cell-based; settings: Homo sapiens, read-out: IFN % inh.
Excerpt: as §1, §2

[4] = test system: GM-CSF (granulocyte macrophage stimulating factor); assay: PHA-stimulated peripheral blood lymphocyte cytokine release: GM-CSF; format: cell-based; settings: Homo sapiens, read-out: GMCSF % inh.
Excerpt: as §1, §2

[5] = test system: B16 cells; assay: Induction of pigmentation in vitro, DOPA staining; format: cell-based, murine; settings: 10 ug/ml, 48 hours
Description: THPED was tested for its effect on pigmentation, using melanocytes, DOPA staining and computerized image analysis. THPED was obtained from BASF (Florham Park, N.J.). THPED was dissolved in culture medium and pH was adjusted to neutral (pH 7.2). THPED was assayed at concentrations ranging from 0.05-0.01%.
B16 cells (a murine melanoma cell line) were obtained from American Type Culture Collection (Manassas, Va.). Cells were cultured in Dulbecco's Modified Eagle Medium (DMEM) containing 10% fetal bovine serum (FBS), 4.5 mg/ml glucose, 2 mM L-glutamine, sodium pyruvate, without phenol red (Invitrogen, Carlsbad, Calif.). B16 cells were plated on 12 well tissue culture plates (Corning Costar, San Diego, Calif.), at 40,000 cells per well in the above culture media. Cells were allowed to grow overnight and then treated with various concentrations of THPED at pH 7.2 for total 48 hours. Fresh media containing the experimental treatments were changed once daily.
At the end of the treatment, the cells were washed for 5 minutes, twice, in phosphate-buffered saline (PBS, from Life Technologies, Gaithersburg, Md.), then briefly fixed in 10% buffered formalin (from Sigma St. Louis, Mo.) for 10 minutes, washed three times with PBS and stained with 0.1% L-3,4-Dihydroxyphenylalanine (DOPA, from Sigma, St. Louis, Mo.) in PBS for 2-3 hours at 37° C., followed by three PBS washes. DOPA is a substrate for tyrosinase; therefore an increase in staining represents increased tyrosinase activity and pigment production. Images of DOPA-stained cells were taken using a Leica DMIL microscope (Bannockburn, Ill.) and an OPTRONICS DEI-750 digital camera (Goleta, Calif.). All images were obtained and analyzed with Image Pro Plus 4.0 software (Media Cybernetics, Silver Spring, Md.).
The pigment change was evaluated using the scale defined in Table XII.

[6] = test system: tyrosinase; assay: Tyrosinase activity in lysates of treated B16 cells (DOPA, absorbance 490 nm); format: cell-based, murine; settings: 10 μg/ml; B16 cells 48 hours; activity at 3-hours, normalized for total protein
Description: THPED was also tested for its ability to induce tyrosinase activity in B16 cells by spectroscopic measuring of the final product, melanin. B16 cells were treated with THPED at different concentrations at pH 7.2 for 48 hours and cells were then lysed in 250 μl of PBS containing 1% Triton X-100 (Sigma, St. Louis, Mo.). The lysates were collected and centrifuged at 14,000 rpm for 5 minutes at 4° C. to pellet any insoluble material. Lysates (100 μl) were transferred to a 96 well assay plate (Corning Costar, San Diego, Calif.) and mixed with 100 μl of 0.1% (w/v) DOPA in PBS. The absorbance at 490 nm was then monitored from 0 to 12 hours using a VersaMax Plate Spectrophotometer (Molecular Devices, Sunnyvale, Calif.) and SoftMax Pro analytical software (Molecular Devices, Sunnyvale, Calif.). The tyrosinase activities were normalized for total protein using the BioRad Dc Protein Assay (Bio Rad, Hercules, Calif.).

[7] = test system: tyrosinase; assay: Tyrosinase protein levels in B16 cells (Western blot, normalized to β-Actin); format: cell-based, murine; settings: 20 μg/ml, PBS treated control = 1
Description: THPED was also tested for its ability to induce tyrosinase protein levels in B16 cells. B16 cells were treated with THPED at different concentrations at pH 7.2 for 48 hours and cells were then lysed in 250 μl of PBS containing 1% Triton X-100. B16 cell lysates containing 3.7 μg of protein (for tyrosinase protein analysis) and 1.2 μg of protein (for β-Actin protein analysis) were electrophoresed on 4-20% Tris-Glycine SDS PAGE minigels (Invitrogen, Carlsbad, Calif.), transferred onto PVDF membrane (Bio Rad, Hercules, Calif.), and probed with antibodies for Tyrosinase (1:200 in PBS+0.2% Tween 20+5% BSA, obtained from Santa Cruz Biotechnology, Inc., Santa Cruz, Calif.) and β-Actin (1:2000 in PBS+0.2% Tween 20+5% BSA, obtained from Sigma, St. Louis, Mo.). Protein expression of tyrosinase and β-Actin were analyzed using ECL reagent and Hyperfilm ECL obtained from Amersham (Piscataway, N.J.). The film was developed using a Konica SRX-101A Processor (East Orange, N.J.).
Tyrosinase protein level in untreated B16 cells was normalized to 1.

[8] = 10 μg/ml, 10 μg/mL PHA, 48 hour incubation
[9] = 100 μg/ml, 10 μg/mL PHA, 48 hour incubation

Q: With `NCCNCCN` [Diethylenetriamine] as the molecule, how does the inhibition at 10 µg/mL [1, 8] read?
A: 9.9%

Q: And the inhibition at 100 µg/mL [1, 9]?
A: 3.3%

Q: What about the inhibition at 10 µg/mL [2, 8] of the same molecule?
A: 4.7%

Q: What about the inhibition at 100 µg/mL [2, 9] of the same molecule?
A: -19.5%

Q: What about the inhibition at 10 µg/mL [3, 8] of the same molecule?
A: -1.2%

Q: And the inhibition at 100 µg/mL [3, 9]?
A: -35%

Q: And the inhibition at 10 µg/mL [4, 8]?
A: 36.6%

Q: And the inhibition at 100 µg/mL [4, 9]?
A: 51.7%

Q: `C=C[C@@]1(C)CC(=O)[C@]2(O)[C@@]3(C)[C@@H](O)CCC(C)(C)[C@@H]3[C@H](O)[C@H](OC(C)=O)[C@@]2(C)O1` [Forskolin, forskolin, reference compound] was tested. Which Pigmentation score [5] did it give?
A: 3

Q: What about the “% tyrosinase activity relative to untreated control” value [6] of the same molecule?
A: 202.35%

Q: What about the “Relative increase in tyrosinase protein” value [7] of the same molecule?
A: 34 fold

Q: What does the source list for `CN(C)CCN(C)C` [TEMED, N, N, N′, N′-tetramethylethylene diamine]?
A: inhibition at 10 µg/mL ([1]; 48 h): 33.6%; inhibition at 100 µg/mL ([1]; 48 h): 41.8%; inhibition at 10 µg/mL ([2]; 48 h): 6.6%; inhibition at 100 µg/mL ([2]; 48 h): 42.9%; inhibition at 10 µg/mL ([3]; 48 h): 36.9%; inhibition at 100 µg/mL ([3]; 48 h): 58.6%; inhibition at 10 µg/mL ([4]; 48 h): 47.4%; inhibition at 100 µg/mL ([4]; 48 h): 53.1%

Q: With `OCCN(CCO)CCN(CCO)CCO` [THEED, N, N, N′, N′-Tetrakis(2-hydroxyethyl)ethylene diamine] as the molecule, how does the inhibition at 10 µg/mL ([1]; 48 h) read?
A: 35.8%

Q: And the inhibition at 100 µg/mL ([1]; 48 h)?
A: 44.5%

Q: What about the inhibition at 10 µg/mL ([2]; 48 h) of the same molecule?
A: 27.7%

Q: And the inhibition at 100 µg/mL ([2]; 48 h)?
A: 61.8%

Q: What about the inhibition at 10 µg/mL ([3]; 48 h) of the same molecule?
A: 23.7%

Q: And the inhibition at 100 µg/mL ([3]; 48 h)?
A: 49.5%

Q: And the inhibition at 10 µg/mL ([4]; 48 h)?
A: 16.6%

Q: And the inhibition at 100 µg/mL ([4]; 48 h)?
A: 23%

Q: Which inhibition at 10 µg/mL [1, 8] does the source give for `CC(C)NCCN(CCNC(C)C)CCNC(C)C` [Tris[2-(isopropylamino)ethyl]amine, reference compound] here?
A: -10.7%

Q: What about the inhibition at 100 µg/mL [1, 9] of the same molecule?
A: -15.3%

Q: What about the inhibition at 10 µg/mL [2, 8] of the same molecule?
A: -7.7%

Q: What about the inhibition at 100 µg/mL [2, 9] of the same molecule?
A: 2.3%

Q: And the inhibition at 10 µg/mL [3, 8]?
A: 20.3%

Q: What about the inhibition at 100 µg/mL [3, 9] of the same molecule?
A: 12.5%

Q: And the inhibition at 10 µg/mL [4, 8]?
A: -26.4%

Q: And the inhibition at 100 µg/mL [4, 9]?
A: -52.8%
